Structures are written as SMILES.

This test deals with SARS-CoV-2 RG-2675 (South Africa). Kind of test: Cytopathic effect reduction, SARS-CoV-2 RG-2675 (South Africa) in Vero cells. Format: cell-based. The note with it: Severe acute respiratory syndrome coronavirus 2, Vero, read-out: Antiviral Activity (EC50) RG-2675 (South Africa).
On to `COc1ccc(C(OC[C@H]2O[C@@H](n3ccc4nc5cc(O)ccc5n4c3=O)C[C@@H]2O)(c2ccccc2)c2ccc(OC)cc2)cc1` [Compound 3a, 2-((2R,4S,5R)-5-((bis(4-methoxyphenyl)(phenyl)methoxy)methyl)-4-hydroxytetrahydrofuran-2-yl)-7-hydroxybenzo[4,5]imidazo[1,2-c]pyrimidin-1(2H)-one], for which the EC50 (usually the concentration at which the effect is half-maximal) amounted to 9.1 ± 0.62 µM.
For `CC(C)C(=O)OC[C@H]1O[C@@H](n2ccc(NO)nc2=O)[C@H](O)[C@@H]1O` [Molnupiravir], the EC50 stood at 5.18 ± 0.26 µM.
The result for `CCC(CC)COC(=O)[C@H](C)N[P@](=O)(OC[C@H]1O[C@@](C#N)(c2ccc3c(N)ncnn23)[C@H](O)[C@@H]1O)Oc1ccccc1` [Remdesivir, reference compound] reads 1.31 ± 0.68 µM.

The values above are taken from article PMC10572855, “Phenotypic Test of Benzo[4,5]imidazo[1,2-c]pyrimidinone-Based Nucleoside and Non-Nucleoside Derivatives against DNA and RNA Viruses, Including Coronaviruses” (International Journal of Molecular Sciences, 2023).
